15 compounds from ChEMBL document CHEMBL2057063, “Exogenous fluorescent tracer agents based on pegylated pyrazine dyes for real-time point-of-care measurement of glomerular filtration rate” (Bioorg Med Chem, 2012) can be followed below.

The nature of data set [1]: Drug excretion in Sprague-Dawley rat urine administered via tail vein measured after 6 hrs by HPLC analysis. Format: ADME. Particulars: iv, read-out: Ae.
Data set [2] in a line: Plasma protein binding in rat at 20 uM after 1 hr by HPLC analysis. Format: ADME, cell-free. As to conditions: read-out: PPB (converted).
Data set [3] is described as follows: Terminal elimination half life in Sprague-Dawley rat plasma. The data set is classed as ADME, cell-free. As to conditions: read-out: beta t1/2.
Another data set is filed under the species Rattus norvegicus. The experiment in a line: Volume of distribution in Sprague-Dawley rat. Particulars: in vivo. Format: ADME, organism-based.
Data set [4] can be described thus: Clearance in Sprague-Dawley rat. The data set is classed as ADME, organism-based. As to conditions: in vivo.
Data set [5] in a line: Clearance in Sprague-Dawley rat in presence of 70 mg/kg probenecid administered 10 mins prior to compound treatment. The data set is classed as ADME, organism-based. More on the design: dose 70 mg/kg. As to conditions: in vivo, with probenecid 70 mg/kg.
Data set [6] can be described thus: Terminal elimination half life in Sprague-Dawley rat blood. Format: ADME, tissue-based. As to conditions: read-out: beta t1/2.

In the case of `O=C(NCC(O)CO)c1nc(NC[C@H](O)CO)c(C(=O)NCC(O)CO)nc1NC[C@H](O)CO` (some centres undefined), in data set [1], the dose excreted at 6 h was determined as 88%.
On to `COCCOCCOCCOCCNC(=O)c1nc(N)c(C(=O)NCCOCCOCCOCCOC)nc1N`, for which the dose excreted at 6 h in data set [1] is 41%. Also, the fraction unbound at 1 h, 20 µM in data set [2] is 1.
Turning to `COCCOCCOCCOCCOCCOCCOCCOCCNC(=O)c1nc(N)c(C(=O)NCCOCCOCCOCCOCCOCCOCCOCCOC)nc1N`, the dose excreted at 6 h in data set [1] was determined as 45%. For the same compound, the fraction unbound at 1 h, 20 µM in data set [2] was 1.
What is called Vd is a proportionality between amount in the body and measured concentration, not a real space. Read a low Vd as confinement near the circulation. As to `COCCOCCOCCOCCOCCOCCOCCOCCOCCOCCOCCOCCNC(=O)c1nc(N)c(C(=O)NCCOCCOCCOCCOCCOCCOCCOCCOCCOCCOCCOCCOC)nc1N`, in data set [3], the half-life stood at 20 min. For the same compound, in data set [1], the dose excreted at 6 h was 71%. In the data set listed under Rattus norvegicus, this compound yielded a Vd of 70 mL. Also, the fraction unbound at 1 h, 20 µM in data set [2] was 1.
For orientation: clearance means a measure of how efficiently the substance is removed, as volume per time. As for `COCCOCCOCCOCCOCCOCCOCCOCCOCCOCCOCCOCCOCCOCCOCCOCCOCCOCCOCCOCCOCCOCCOCCOCCNC(=O)c1nc(N)c(C(=O)NCCOCCOCCOCCOCCOCCOCCOCCOCCOCCOCCOCCOCCOCCOCCOCCOCCOCCOCCOCCOCCOCCOCCOCCOC)nc1N`, the half-life in data set [3] came out at 25 min. The dose excreted at 6 h in data set [1] was found to be 96%. The compound further gave a Vd in the data set filed under Rattus norvegicus of 64 mL. Further, in data set [2], the fraction unbound at 1 h, 20 µM is 0.95. Also, the clearance in data set [4] was determined as 2.8 mL/min; in data set [5] it was 2.7 mL/min.
`COCCOCCOCCOCCCNc1nc(C(=O)NCCOCCOCCOCCOCCOCCOCCOCCOCCOCCOCCOCCOC)c(NCCCOCCOCCOCCOC)nc1C(=O)NCCOCCOCCOCCOCCOCCOCCOCCOCCOCCOCCOCCOC`: the dose excreted at 6 h in data set [1] stood at 86%. The fraction unbound at 1 h, 20 µM in data set [2] is 1.
The matching figures for `COCCOCCOCCOCCOCCOCCOCCOCCCNc1nc(C(=O)NCCOCCOCCOCCOCCOCCOCCOCCOCCOCCOCCOCCOC)c(NCCCOCCOCCOCCOCCOCCOCCOCCOC)nc1C(=O)NCCOCCOCCOCCOCCOCCOCCOCCOCCOCCOCCOCCOC`: 87% and 0.99.
With `COCCOCCOCCOCCOCCOCCOCCOCCOCCOCCOCCOCCCNc1nc(C(=O)NCCOCCOCCOCCOCCOCCOCCOCCOCCOCCOCCOCCOC)c(NCCCOCCOCCOCCOCCOCCOCCOCCOCCOCCOCCOCCOC)nc1C(=O)NCCOCCOCCOCCOCCOCCOCCOCCOCCOCCOCCOCCOC`, the half-life in data set [6] was found to be 21.6 min; in data set [3] it was 19 min. Further, in data set [1], the dose excreted at 6 h was determined as 97%. The Vd in the data set filed under Rattus norvegicus came out at 61 mL. Also, the fraction unbound at 1 h, 20 µM in data set [2] was 0.97. Also, the values for the clearance in data set [4] and in data set [5] were 3.1 mL/min and 3.3 mL/min, respectively.
Regarding `CCCNc1nc(C(=O)NCCOCCOCCOCCOCCOCCOCCOCCOCCOCCOCCOCCOCCOCCOCCOCCOCCOCCOCCOCCOCCOCCOCCOCCOC)c(NCCC)nc1C(=O)NCCOCCOCCOCCOCCOCCOCCOCCOCCOCCOCCOCCOCCOCCOCCOCCOCCOCCOCCOCCOCCOCCOCCOCCOC`, the dose excreted at 6 h in data set [1] was determined as 85%. Besides, in data set [2], the fraction unbound at 1 h, 20 µM was 0.87.
As for `COCCOCCOCCNc1nc(C(=O)NCCOCCOCCOCCOCCOCCOCCOCCOCCOCCOCCOCCOCCOCCOCCOCCOCCOCCOCCOCCOCCOCCOCCOCCOC)c(NCCOCCOCCOC)nc1C(=O)NCCOCCOCCOCCOCCOCCOCCOCCOCCOCCOCCOCCOCCOCCOCCOCCOCCOCCOCCOCCOCCOCCOCCOCCOC`, the dose excreted at 6 h in data set [1] is 96%. In addition, in data set [2], the fraction unbound at 1 h, 20 µM is 0.89.
In the case of `COCCOCCOCCOCCOCCOCCOCCOCCCNc1nc(C(=O)NCCOCCOCCOCCOCCOCCOCCOCCOCCOCCOCCOCCOCCOCCOCCOCCOCCOCCOCCOCCOCCOCCOCCOCCOC)c(NCCCOCCOCCOCCOCCOCCOCCOCCOC)nc1C(=O)NCCOCCOCCOCCOCCOCCOCCOCCOCCOCCOCCOCCOCCOCCOCCOCCOCCOCCOCCOCCOCCOCCOCCOCCOC`, the dose excreted at 6 h in data set [1] was found to be 92%. Moreover, the fraction unbound at 1 h, 20 µM in data set [2] was 0.7.
Turning to `COCCOCCOCCOCCOCCOCCOCCOCCOCCOCCOCCOCCCNc1nc(C(=O)NCCOCCOCCOCCOCCOCCOCCOCCOCCOCCOCCOCCOCCOCCOCCOCCOCCOCCOCCOCCOCCOCCOCCOCCOC)c(NCCCOCCOCCOCCOCCOCCOCCOCCOCCOCCOCCOCCOC)nc1C(=O)NCCOCCOCCOCCOCCOCCOCCOCCOCCOCCOCCOCCOCCOCCOCCOCCOCCOCCOCCOCCOCCOCCOCCOCCOC`, the half-life in data set [3] was determined as 31 min. The dose excreted at 6 h in data set [1] was determined as 89%. Also, the Vd in the data set listed under Rattus norvegicus worked out at 68 mL. For the same compound, the fraction unbound at 1 h, 20 µM in data set [2] was 0.59.
With `COCCOCCOCCOCCOCCOCCOCCOCCOCCOCCOCCOCCOCCOCCOCCOCCOCCOCCOCCOCCOCCOCCOCCOCCCNc1nc(C(=O)NCCOCCOCCOCCOCCOCCOCCOCCOCCOCCOCCOCCOCCOCCOCCOCCOCCOCCOCCOCCOCCOCCOCCOCCOC)c(NCCCOCCOCCOCCOCCOCCOCCOCCOCCOCCOCCOCCOCCOCCOCCOCCOCCOCCOCCOCCOCCOCCOCCOCCOC)nc1C(=O)NCCOCCOCCOCCOCCOCCOCCOCCOCCOCCOCCOCCOCCOCCOCCOCCOCCOCCOCCOCCOCCOCCOCCOCCOC`, the dose excreted at 6 h in data set [1] came out at 86%. Further, in data set [2], the fraction unbound at 1 h, 20 µM was 0.61.
On to `CNC(=O)c1c(I)c(NC(C)=O)c(I)c(C(=O)[O-])c1I.[Na+]` [IOTHALAMATE SODIUM], for which the dose excreted at 6 h in data set [1] came to 80%. The same compound had a Vd in the data set filed under Rattus norvegicus of 104 mL. The results for the clearance in data set [4] and in data set [5] were 2.5 mL/min and 2.2 mL/min, respectively.
On to `Nc1nc(C(=O)N[C@H](CO)C(=O)O)c(N)nc1C(=O)N[C@H](CO)C(=O)O` [RELMAPIRAZIN], for which the dose excreted at 6 h in data set [1] was 90%. Moreover, the Vd in the data set listed under Rattus norvegicus was determined as 83 mL.
